Reference: paper PMC13233288, “Spider venom peptides Ht1a and Gg1a are toxic to honeybee parasite Varroa destructor by topical application” (npj Drug Discovery, 2026)
“Also recorded” adds a separate entry of the source. No end group written: not given here.

How the values were obtained:
honeybees = assay: Topical application of synthetic peptides to honeybees (off-target); assay type: in vivo, Apis mellifera; details: 25 μg peptide per honeybee (52-fold the mite dose) in 2% Silwet (v/v), n = 10 workers per group, 3 repeats, vs 2% Silwet control
From the text: If sprayed within a beehive, the varroacidal peptides would need to lethal for V. destructor, but safe for the honeybees. To evaluate potential off-target activities of the varroacidal peptides, we first needed to quantify how much larger the body surface of the bees is in comparison to the mites to understand how much more of the varroacidal peptides they would receive when being sprayed. Assuming an elliptical body shape of V. destructor, the surface area can be calculated according to the following formula: A=π×a×b×2
This also means that if we evenly applied these peptides via spraying at a certain concentration to both bees and mites, then the bees would receive a 34-fold higher peptide quantity due to their correspondingly higher surface area.
To allow for an additional safety margin, we topically applied 25 μg of each peptide per bee, which is 52-fold more than the 0.48 μg that each varroa mite received. The effects of sHt1a and sGg1a were tested on honeybees kept in plastic containers in the laboratory. The containers consisted of 250 ml polypropylene round cups with a 52 mm diameter hole cut into the bottom, covered with a 68 mm diameter circle of all-purpose cloth (brand: Peggy Perfect) hot glued to the edge of the hole on the outside of the cup (Supplementary Fig. 3). A 14 mm diameter hole was cut in the lid of the cup to insert a 5 mL syringe which served as feeder. The syringe was filled with 50% sucrose solution, and its tip was cut off to facilitate solution intake by the bees. Honeybee workers were obtained from a comb with emerging individuals placed in an incubator set to 34.5 °C and 70% humidity. The next day, groups of 10 freshly emerged workers were collected, introduced into the prepared cages and placed back in the incubator overnight. The next morning, peptide and control solutions to be tested were freshly prepared from the stock solutions stored at 4 °C. Then, the bees were sedated with CO2 gas until they stopped moving. Immediately after all bees stopped moving, the plastic lid was removed, and 15 µL of testing solution (containing 2% Silwet (v/v) or 25 μg of each peptide per bee) was topically applied on each of the 10 bees per group. The solution was applied on the abdomen or thorax, but not on the wings or head of the individuals. Following treatment, the worker bees were allowed to recover from the sedation and the containers with the bees were put back in the incubator, with mortality being manually checked daily. At the end of each experiment, all arthropods were euthanised by freezing at −20 °C.

VdNaV = assay: Two-electrode voltage clamp, VdNaV expressed in Xenopus laevis oocytes; assay type: biochemical, V. destructor; details: for varroa vs honeybee NaV channel potency: VdNaV compared with AmNaV, 500 nM
From the text: (§1) To examine the activity of sHt1a against target and off-target arthropod voltage-gated sodium (NaV) channels, we used electrophysiological recordings of V. destructor (Vd) or A. mellifera (Am) NaV channels expressed in Xenopus laevis oocytes. The cDNA sequences of the VdNaV (in pGH19; kindly gifted by K. Dong[31]) and AmNaV channel (in pcDNA3.1; Genscript, USA) were confirmed by automated Sanger sequencing (Eurofins Genomics, Germany). RNA was synthesised using T7 polymerase (mMessage mMachine kit, Invitrogen, USA) after linearising the cDNA with an appropriate restriction enzyme (New England Biolabs, USA). NaV channel RNA was microinjected into defolliculated X. laevis oocytes (Nasco®, USA) which were then incubated for 2–3 days at 17 °C in Barth’s medium (in millimolar (mM): 96 NaCl, 2 KCl, 5 HEPES, 1 MgCl2, and 1.8 CaCl2 supplemented with 50 µg/mL gentamycin, pH 7.4 adjusted with NaOH (Sigma, USA)). The use of X. laevis complied with national and Flemish guidelines adhered to by the Ghent University Animal Care and Use Committee. Electrophysiological characteristics were studied using the two-electrode voltage-clamp technique (OC-725C; Warner Instruments, USA) with a 150-µL recording chamber as previously described. All data were filtered at 4 kHz (tunable active filter model 900, Frequency Devices Inc., USA) and digitised at 20 kHz using pClamp 10 software (Molecular Devices, USA). The external recording solution used was ND-100 (in mM: 100 NaCl, 5 HEPES, 1 MgCl2, and 1.8 CaCl2, pH 7.6 adjusted with NaOH; chemicals from Sigma, USA). Microelectrode (Narishige® PC-10 vertical puller) resistances were 0.5–1.0 MΩ when backfilled with 3 M KCl. All experiments were performed at room temperature (~22 °C).
(§2) For electrophysiological experiments, sHt1a dissolved at 50 µM in ND100 was added to the recording chamber containing ND100 to a final concentration of 500 nM. After current stabilisation, normalized conductance-voltage (G-V) and channel availability relationships were obtained by measuring steady-state currents upon stepwise depolarisation for 50 ms from a holding potential of –90 mV in 5 mV increments, followed by a 50 ms pulse at –20 mV. The data were fitted with a single Boltzmann function according to I/Imax (or G/Gmax) = [1+exp(-zF(V-V1/2)/RT)]^−1, where I/Imax is the normalised current amplitude, z is the equivalent charge, V1/2 is the half-activation voltage, F is Faraday’s constant, R is the gas constant, and T is the temperature in Kelvin. Off-line data analysis was performed using Clampfit 10 (Molecular Devices, USA), Excel (Microsoft Office) and Prism 10 (GraphPad). Tests for statistical differences included a student’s t-test for V1/2 values and a Kruskal–Wallis test for current inhibition, with p < 0.05 considered to be significant.

AmNaV = assay: Two-electrode voltage clamp, AmNaV expressed in Xenopus laevis oocytes; assay type: biochemical, A. mellifera; details: 500 nM sHt1a
From the text: as §1, §2

[1] = VdNav, 500 nM sHt1a, mean ± SEM, n = 5 oocytes
[2] = AmNav, mean ± SEM, n = 6 oocytes

For U1-macrothelitoxin-Gg1a, the honeybee mortality/survival (honeybees) was “innocuous to honeybees” and the honeybee mortality/survival (honeybees; listed as sGg1a) was “neither peptide caused more mortality; also recorded: did not alter honeybee survival”.

With “KYCAPRKAVCNTPADCCDKSSRCAYPNYGLGYYLDSEFFGKRKICSWRL (also: bicyclic or more (positions not given here)) [Ht1a, μ-gradutoxin-Ht1a]” the honeybee mortality/survival (honeybees) was “innocuous to honeybees”, the honeybee mortality/survival (honeybees; listed as sHt1a) was “neither peptide caused more mortality; also recorded: did not alter honeybee survival” and the “reduction in peak VdNaV current” value (VdNaV; 500 nM sHt1a, ND-100 pH 7.6, ~22 °C, p = 0.0212 (Kruskal–Wallis)) was 25.3 ± 7.8%. The “varroa vs honeybee NaV channel potency” value (VdNaV) was “equal potency”, the “varroa vs honeybee NaV channel potency” value (VdNaV; listed as sHt1a) was “equally active” and the “change in half-maximal activation or inactivation values” (VdNaV; VdNaV, 500 nM sHt1a, vs before treatment) was “without a significant change”. The “Activation Hill slope” value (VdNaV; [1]) was 3.44 ± 0.55, the “Activation V1/2” value (VdNaV; [1]) was “–17.7 ± 0.7 mV” and the “Steady state inactivation Hill slope” value (VdNaV; [1]) was “–4.90 ± 1.29”. For the same substance, the “Steady state inactivation V1/2” value (VdNaV; [1]) was “–40.8 ± 0.5 mV”, the “potency relative to other insect NaV channel targeting spider toxins” value (VdNaV; authors' comparison of 500 nM sHt1a data (VdNaV, AmNaV) with literature IC50/EC50) was “less potent than Tx4(6-1) (IC50 = 25 nM[33]) or Dc1a (EC50 = 65 nM[34]), but similarly potent to Aps III (IC50 = 540 nM[35]) and Jingzhaotoxin-I” and the “reduction in peak AmNaV current” value (AmNaV; ND-100 pH 7.6, ~22 °C, p = 0.0095 (Kruskal–Wallis)) was 24.7 ± 7.2%. For the same substance, the “change in half-maximal activation or inactivation values” (AmNaV; AmNaV, vs before treatment) was “without a significant change”, the “Activation Hill slope” value (AmNaV; [2]) was 3.62 ± 0.61 and the “Activation V1/2” value (AmNaV; [2]) was “–27.6 ± 1.3 mV”. For the same substance, the “Steady state inactivation Hill slope” value (AmNaV; [2]) was “–5.12 ± 1.44” and the “Steady state inactivation V1/2” value (AmNaV; [2]) was “–48.2 ± 1.0 mV”.
